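These data come from cells grown in 96-well plates and exposed to compound for 48 hours at five concentrations. TGI: concentration producing complete growth inhibition.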
Legend:
Assay in all cases: NCI-60 cell line screen, 48 h
[1] = system: SK-MEL-28 melanoma
[2] = system: CCRF-CEM leukemia
[3] = system: HT29 colon
[4] = system: HS 578T breast
[5] = system: SK-OV-3 ovarian
[6] = system: MDA-MB-231 breast
[7] = system: MALME-3M melanoma
[8] = system: MDA-MB-435
[9] = system: SF-539 CNS
[10] = system: COLO 205 colon
[11] = system: SNB-75 CNS
[12] = system: TK-10 renal
[13] = system: UO-31 renal
[14] = system: CAKI-1 renal
[15] = system: KM12 colon
[16] = system: OVCAR-3 ovarian
[17] = system: A498 renal
[18] = system: EKVX NSCLC
[19] = system: NCI/ADR-RES ovarian
[20] = system: HL-60(TB) leukemia
[21] = system: BT-549 breast
[22] = system: DU-145 prostate
[23] = system: UACC-257 melanoma
[24] = system: MCF7 breast
[25] = system: SF-295 CNS
[26] = system: NCI-H522 lung
[27] = system: OVCAR-5 ovarian
[28] = system: IGROV1 ovarian
[29] = system: M14 melanoma
[30] = system: NCI-H226 lung
[31] = system: SNB-19 CNS
[32] = system: MDA-N
[33] = system: A549 NSCLC
[34] = system: 786-0 renal
[35] = system: SN12C renal
[36] = system: OVCAR-8 ovarian
[37] = system: T-47D breast
[38] = system: MOLT-4 leukemia
[39] = system: RPMI-8226 leukemia
[40] = system: NCI-H460 lung
[41] = system: SW-620 colon
[42] = system: SK-MEL-5 melanoma
[43] = system: HCT-15 colon
[44] = system: HCT-116 colon
[45] = system: OVCAR-4 ovarian
[46] = system: ACHN renal
[47] = system: U251 CNS
[48] = system: UACC-62 melanoma
[49] = system: HOP-62 NSCLC
[50] = system: NCI-H23 lung
[51] = system: PC-3 prostate
[52] = system: HCC-2998 colon
[53] = system: SF-268 CNS
[54] = system: K-562 leukemia
[55] = system: LOX IMVI melanoma
[56] = system: SR leukemia
[57] = system: SK-MEL-2 melanoma
[58] = system: HOP-92 NSCLC
[59] = system: RXF 393 renal

Measured: TGI

CC(=O)OCCC[C@@H]1C(=C(C)C)CCC2[C@@]1(C)CC[C@@]1(C)C[C@](C)(CCC=C(C)C)CC[C@]21C (stereo partly drawn)
0.0632 µM: [12]
46.1 µM: [13]
not listed: [54] | [55] | [56] | [57] | [58] | [59]
> 100 µM: all other assays above

CC(C)CC(NC(=O)OCc1ccccc1)C(=O)NCCCCC(N)C(=O)NC(CCCCNC(=O)C(CC(C)C)NC(=O)OCc1ccccc1)C(=O)NC(CCCCNC(=O)C(CC(C)C)NC(=O)OCc1ccccc1)C(=O)NC(CCCCNC(=O)C(CC(C)C)NC(=O)OCc1ccccc1)C(=O)NC(CCCCNC(=O)C(CC(C)C)NC(=O)OCc1ccccc1)C(=O)NC(CCCCNC(=O)C(CC(C)C)NC(=O)OCc1ccccc1)C(=O)O (stereo not drawn)
not listed: [1] | [4] | [5] | [9] | [10] | [11] | [14] | [15] | [18] | [19] | [25] | [29] | [53] | [58] | [59]
> 100 µM: all other assays above

Cc1c(Cl)c(=O)oc2cc(OCC(=O)c3ccccc3)ccc12
75.4 µM: [6]
10.7 µM: [56]
67.8 µM: [49]
not listed: [11] | [34] | [39] | [44] | [55]
> 100 µM: all other assays above

COc1ccc(-c2cc(=O)c3c(O)c(OC)c(O)cc3o2)cc1O
21.9 µM: [9]
> 85.5 µM: [21]
> 25.8 µM: [7]
14.2 µM: [20]
> 75 µM: [29]
> 88.1 µM: [51]
> 87.1 µM: [18]
40.9 µM: [24]
9.53 µM: [26]
60 µM: [11]
31.4 µM: [48]
> 93.8 µM: [5]
> 21.2 µM: [19]
43.6 µM: [40]
87.3 µM: [4]
> 73.2 µM: [14]
> 61.8 µM: [3]
20.7 µM: [38]
> 43.5 µM: [57]
18.6 µM: [15]
32.4 µM: [44]
> 23.6 µM: [39]
> 85.9 µM: [58]
40.2 µM: [28]
> 90.8 µM: [30]
32.7 µM: [55]
59.6 µM: [10]
65.8 µM: [17]
> 64.8 µM: [59]
> 52.7 µM: [54] | [34]
14.9 µM: [42]
> 31.8 µM: [2]
not listed: [56]
> 100 µM: all other assays above

C=CCN1C(=O)N/C(=C\c2ccc(Cl)cc2)C1=O
not listed: [13] | [51] | [52] | [56] | [57]
> 100 µM: all other assays above

C=CCNC(NCC=C)=C(C(Cl)=C(Cl)Cl)[N+](=O)[O-]
54 µM: [4]
54.3 µM: [54]
37.2 µM: [10]
83.4 µM: [21]
71.7 µM: [9]
55.7 µM: [41]
87.9 µM: [38]
30.7 µM: [7]
31.2 µM: [36]
32.9 µM: [43]
not listed: [12] | [20] | [26] | [28] | [42] | [55] | [56] | [58] | [59]
> 100 µM: all other assays above

Cc1cc2c(cc1Cl)SC(NNC(=O)c1ccncc1)=NS2(=O)=O
not listed: [13] | [24] | [56] | [58]
> 10 µM: all other assays above

Reference: PubChem BioAssay (NCI)
